Source: patent US8318792B2, “Therapeutic agent for amyotrophic lateral sclerosis” (Nippon Medical School Foundation, priority 2006, dated 2012)

What was measured:
G1H-G93A transgenic mice [1] = test: Exercise tolerance test: inclined plane test; assay type: in vivo, mouse; settings: for Inclined plane test score: 5 mg/kg oral daily from 80th day (before onset), score 0-3, 5 mg/kg; for effect in inclined plane test as compared to placebo group: 110th, 115th, 120th, 125th and 130th day, 5 mg/kg oral daily from 80th day after birth, Mann-Whitney's U test
Protocol: (§1) The following five kinds of exercise tolerance tests were conducted every fifth day from the 70th day after birth to evaluate the ability to exercise in the respective exercise tolerance tests. That is, the days for the exercise tolerance tests were every fifth days, such as the 70th day, 75th day, 80th day, 85th day and so on, after birth. The exercise tolerance tests were conducted throughout the survival period, and the post-mortem evaluation was based on the definitions of the following five kinds of exercise tolerance tests.
The apparatus used in the inclined plane test is an apparatus allowing a wooden board to be fixed at the respective angles of 45°, 65° and 80° from a horizontal plane. A mouse is placed in the posture of head-up position on the wooden board inclined at each angle and the mouse is allowed to maintain this position for 5 seconds without falling downward. In the evaluation method of the inclined plane test for each mouse, the number of seconds (TA seconds: 5 seconds or less) during which the position could be maintained without falling downward is measured at each of the angles (A) of 45°, 65° and 80°, and then the total sum value of the products of the angle (A) and the number of seconds (TA) during which the position could be maintained: Σ [Angle(A)×Time (TA)] is calculated. Since a normal mouse is capable of maintaining the position on the wooden board inclined to the respective angles for 5 seconds, the sum value of Σ [Angle(A)×Time (TA)] will be 80×5+65×5+45×5=950. The evaluation of the inclined plane test for the mouse was performed based on the following criteria: Score 0=950; Score 1=over 550 to less than 950; Score 2=over 225 to 550; and Score 3=225 and below. The post-mortem evaluation of the inclined plane test is defined as score 3.

G1H-G93A transgenic mice [2] = test: Exercise tolerance test: rotarod test; assay type: in vivo, mouse; settings: for Rotarod test score: 5 mg/kg oral daily from 80th day (before onset), score 0-3; for effect in rotarod test as compared to placebo group: 105th, 110th and 115th day, 5 mg/kg oral daily from 80th day after birth, Mann-Whitney's U test
Protocol: as §1
The apparatus used in the Rotarod test (Rota Rod Treadmill type 7600, Ugo Basile Co., Milano, Italy) is a rotating axle having a diameter of 3.6 cm, and this rotating axle is set up so as to have 16 revolution per minute (one rotation: 3.75 seconds). The period for which a mouse can remain on a rotating axle without falling is measured. The evaluation of the rotarod test for the mouse was performed based on the following criteria: Score 0=The time exceeds 60 seconds; Score 1=The time is more than 30 seconds and 60 seconds or less; Score 2=The time is more than 4 seconds and 30 seconds or less; and Score 3=The time is 4 seconds or less. The post-mortem evaluation of the rotarod test is defined as score 3.

[3] = from the 125th day to 140th day after birth

With CC(C)(C)COc1ccc(-n2cc(C(=O)O)cn2)cc1C#N [compound (a), 1-[3-cyano-4-(2,2-dimethylpropoxy)phenyl]-1H-pyrazole-4-carboxylic acid] the “Inclined plane test score” value (G1H-G93A transgenic mice [1]; 70th day after birth) was 0.0±0.0, the “Inclined plane test score” value (G1H-G93A transgenic mice [1]; 75th day after birth) was 0.0±0.0 and the “Inclined plane test score” value (G1H-G93A transgenic mice [1]; 80th day after birth) was 0.0±0.0. The “Inclined plane test score” value (G1H-G93A transgenic mice [1]; 85th day after birth) was 0.0±0.0, the “Inclined plane test score” value (G1H-G93A transgenic mice [1]; 90th day after birth) was 0.0±0.0 and the “Inclined plane test score” value (G1H-G93A transgenic mice [1]; 95th day after birth) was 0.0±0.0. For the same molecule, the “Inclined plane test score” value (G1H-G93A transgenic mice [1]; 100th day after birth) was 0.0±0.0, the “Inclined plane test score” value (G1H-G93A transgenic mice [1]; 105th day after birth) was 0.0±0.0 and the “Inclined plane test score” value (G1H-G93A transgenic mice [1]; 110th day after birth) was 0.0±0.0. For the same molecule, the “effect in inclined plane test as compared to placebo group” value (G1H-G93A transgenic mice [1]) was “significant effects”, the “Inclined plane test score” value (G1H-G93A transgenic mice [1]; 115th day after birth) was 0.1±0.3 and the “Inclined plane test score” value (G1H-G93A transgenic mice [1]; 120th day after birth) was 0.4±0.5. The “Inclined plane test score” value (G1H-G93A transgenic mice [1]; 125th day after birth) was 1.1±0.9, the “Inclined plane test score” value (G1H-G93A transgenic mice [1]; 130th day after birth) was 2.1±0.9 and the “Inclined plane test score” value (G1H-G93A transgenic mice [1]; 135th day after birth) was 2.7±0.5. The “Inclined plane test score” value (G1H-G93A transgenic mice [1]; 140th day after birth) was 3.0±0.0, the Rotarod test score (G1H-G93A transgenic mice [2]; 70th day after birth, 5 mg/kg) was 0.0±0.0 and the Rotarod test score (G1H-G93A transgenic mice [2]; 75th day after birth, 5 mg/kg) was 0.0±0.0. For the same molecule, the Rotarod test score (G1H-G93A transgenic mice [2]; 80th day after birth, 5 mg/kg) was 0.0±0.0, the Rotarod test score (G1H-G93A transgenic mice [2]; 85th day after birth, 5 mg/kg) was 0.0±0.0 and the Rotarod test score (G1H-G93A transgenic mice [2]; 90th day after birth, 5 mg/kg) was 0.0±0.0. For the same molecule, the Rotarod test score (G1H-G93A transgenic mice [2]; 95th day after birth, 5 mg/kg) was 0.0±0.0, the Rotarod test score (G1H-G93A transgenic mice [2]; 100th day after birth, 5 mg/kg) was 0.0±0.0 and the Rotarod test score (G1H-G93A transgenic mice [2]; 105th day after birth, 5 mg/kg) was 0.0±0.0. The “effect in rotarod test as compared to placebo group” value (G1H-G93A transgenic mice [2]) was “significant effects”, the Rotarod test score (G1H-G93A transgenic mice [2]; 110th day after birth, 5 mg/kg) was 0.3±0.7 and the Rotarod test score (G1H-G93A transgenic mice [2]; 115th day after birth, 5 mg/kg) was 1.2±1.3. For the same molecule, the Rotarod test score (G1H-G93A transgenic mice [2]; 120th day after birth, 5 mg/kg) was 2.2±0.9, the Rotarod test score (G1H-G93A transgenic mice [2]; 125th day after birth, 5 mg/kg) was 2.7±0.5 and the Rotarod test score (G1H-G93A transgenic mice [2]; 130th day after birth) was 3.0 ± 0.0. It also gave a Rotarod test score (G1H-G93A transgenic mice [2]; 135th day after birth) of 3.0 ± 0.0, a Rotarod test score (G1H-G93A transgenic mice [2]; 140th day after birth) of 3.0 ± 0.0 and a Rotarod test score (G1H-G93A transgenic mice [2]; from the 130th day to 140th day after birth) of 3.0±0.0.

For N#Cc1cc(-c2n[nH]c(-c3ccncc3)n2)ccn1 [compound (b), 4-(5-pyridin-4-yl-1H-[1,2,4]triazol-3-yl)pyridine-2-carbonitrile], the “Inclined plane test score” value (G1H-G93A transgenic mice [1]; 70th day after birth) was 0.0±0.0, the “Inclined plane test score” value (G1H-G93A transgenic mice [1]; 75th day after birth) was 0.0±0.0 and the “Inclined plane test score” value (G1H-G93A transgenic mice [1]; 80th day after birth) was 0.0±0.0. The “Inclined plane test score” value (G1H-G93A transgenic mice [1]; 85th day after birth) was 0.0±0.0, the “Inclined plane test score” value (G1H-G93A transgenic mice [1]; 90th day after birth) was 0.0±0.0 and the “Inclined plane test score” value (G1H-G93A transgenic mice [1]; 95th day after birth) was 0.0±0.0. The “Inclined plane test score” value (G1H-G93A transgenic mice [1]; 100th day after birth) was 0.0±0.0, the “Inclined plane test score” value (G1H-G93A transgenic mice [1]; 105th day after birth) was 0.0±0.0 and the “Inclined plane test score” value (G1H-G93A transgenic mice [1]; 110th day after birth) was 0.0±0.0. The “effect in inclined plane test as compared to placebo group” value (G1H-G93A transgenic mice [1]) was “significant effects”, the “Inclined plane test score” value (G1H-G93A transgenic mice [1]; 115th day after birth) was 0.1±0.3 and the “Inclined plane test score” value (G1H-G93A transgenic mice [1]; 120th day after birth) was 0.6±0.7. The “Inclined plane test score” value (G1H-G93A transgenic mice [1]; 125th day after birth) was 1.4±0.7, the “Inclined plane test score” value (G1H-G93A transgenic mice [1]; 130th day after birth) was 2.3±0.7 and the “Inclined plane test score” value (G1H-G93A transgenic mice [1]; 135th day after birth) was 2.9±0.3. For the same molecule, the “Inclined plane test score” value (G1H-G93A transgenic mice [1]; 140th day after birth) was 3.0±0.0, the Rotarod test score (G1H-G93A transgenic mice [2]; 70th day after birth, 5 mg/kg) was 0.0±0.0 and the Rotarod test score (G1H-G93A transgenic mice [2]; 75th day after birth, 5 mg/kg) was 0.0±0.0. For the same molecule, the Rotarod test score (G1H-G93A transgenic mice [2]; 80th day after birth, 5 mg/kg) was 0.0±0.0, the Rotarod test score (G1H-G93A transgenic mice [2]; 85th day after birth, 5 mg/kg) was 0.0±0.0 and the Rotarod test score (G1H-G93A transgenic mice [2]; 90th day after birth, 5 mg/kg) was 0.0±0.0. The Rotarod test score (G1H-G93A transgenic mice [2]; 95th day after birth, 5 mg/kg) was 0.0±0.0, the Rotarod test score (G1H-G93A transgenic mice [2]; 100th day after birth, 5 mg/kg) was 0.0±0.0 and the Rotarod test score (G1H-G93A transgenic mice [2]; 105th day after birth, 5 mg/kg) was 0.0±0.0. For the same molecule, the “effect in rotarod test as compared to placebo group” value (G1H-G93A transgenic mice [2]) was “significant effects”, the Rotarod test score (G1H-G93A transgenic mice [2]; 110th day after birth, 5 mg/kg) was 0.5±0.7 and the Rotarod test score (G1H-G93A transgenic mice [2]; 115th day after birth, 5 mg/kg) was 1.3±1.1. For the same molecule, the Rotarod test score (G1H-G93A transgenic mice [2]; 120th day after birth, 5 mg/kg) was 2.5±0.5, the Rotarod test score (G1H-G93A transgenic mice [2]; 125th day after birth) was 3.0 ± 0.0 and the Rotarod test score (G1H-G93A transgenic mice [2]; 130th day after birth) was 3.0 ± 0.0. The Rotarod test score (G1H-G93A transgenic mice [2]; 135th day after birth) was 3.0 ± 0.0, the Rotarod test score (G1H-G93A transgenic mice [2]; 140th day after birth) was 3.0 ± 0.0 and the Rotarod test score (G1H-G93A transgenic mice [2]; [3]) was 3.0±0.0.

With Cc1nc(-c2ccc(OCC(C)C)c(C#N)c2)sc1C(=O)O [compound (c), 2-[3-cyano-4-(2-methylpropoxy)phenyl]-4-methyl-5-thiazolecarboxylic acid] the “Inclined plane test score” value (G1H-G93A transgenic mice [1]; 70th day after birth) was 0.0±0.0, the “Inclined plane test score” value (G1H-G93A transgenic mice [1]; 75th day after birth) was 0.0±0.0 and the “Inclined plane test score” value (G1H-G93A transgenic mice [1]; 80th day after birth) was 0.0±0.0. The “Inclined plane test score” value (G1H-G93A transgenic mice [1]; 85th day after birth) was 0.0±0.0, the “Inclined plane test score” value (G1H-G93A transgenic mice [1]; 90th day after birth) was 0.0±0.0 and the “Inclined plane test score” value (G1H-G93A transgenic mice [1]; 95th day after birth) was 0.0±0.0. For the same molecule, the “Inclined plane test score” value (G1H-G93A transgenic mice [1]; 100th day after birth) was 0.0±0.0, the “Inclined plane test score” value (G1H-G93A transgenic mice [1]; 105th day after birth) was 0.0±0.0 and the “Inclined plane test score” value (G1H-G93A transgenic mice [1]; 110th day after birth) was 0.0±0.0. The “effect in inclined plane test as compared to placebo group” value (G1H-G93A transgenic mice [1]) was “significant effects”, the “Inclined plane test score” value (G1H-G93A transgenic mice [1]; 115th day after birth) was 0.1±0.3 and the “Inclined plane test score” value (G1H-G93A transgenic mice [1]; 120th day after birth) was 0.8±0.6. For the same molecule, the “Inclined plane test score” value (G1H-G93A transgenic mice [1]; 125th day after birth) was 1.2±0.8, the “Inclined plane test score” value (G1H-G93A transgenic mice [1]; 130th day after birth) was 2.3±0.7 and the “Inclined plane test score” value (G1H-G93A transgenic mice [1]; 135th day after birth) was 2.9±0.3. For the same molecule, the “Inclined plane test score” value (G1H-G93A transgenic mice [1]; 140th day after birth) was 3.0±0.0, the Rotarod test score (G1H-G93A transgenic mice [2]; 70th day after birth, 5 mg/kg) was 0.0±0.0 and the Rotarod test score (G1H-G93A transgenic mice [2]; 75th day after birth, 5 mg/kg) was 0.0±0.0. The Rotarod test score (G1H-G93A transgenic mice [2]; 80th day after birth, 5 mg/kg) was 0.0±0.0, the Rotarod test score (G1H-G93A transgenic mice [2]; 85th day after birth, 5 mg/kg) was 0.0±0.0 and the Rotarod test score (G1H-G93A transgenic mice [2]; 90th day after birth, 5 mg/kg) was 0.0±0.0. For the same molecule, the Rotarod test score (G1H-G93A transgenic mice [2]; 95th day after birth, 5 mg/kg) was 0.0±0.0, the Rotarod test score (G1H-G93A transgenic mice [2]; 100th day after birth, 5 mg/kg) was 0.0±0.0 and the Rotarod test score (G1H-G93A transgenic mice [2]; 105th day after birth, 5 mg/kg) was 0.0±0.0. For the same molecule, the “effect in rotarod test as compared to placebo group” value (G1H-G93A transgenic mice [2]) was “significant effects”, the Rotarod test score (G1H-G93A transgenic mice [2]; 110th day after birth, 5 mg/kg) was 0.4±0.8 and the Rotarod test score (G1H-G93A transgenic mice [2]; 115th day after birth, 5 mg/kg) was 1.3±1.3. It also gave a Rotarod test score (G1H-G93A transgenic mice [2]; 120th day after birth, 5 mg/kg) of 2.5±0.5, a Rotarod test score (G1H-G93A transgenic mice [2]; 125th day after birth) of 3.0 ± 0.0 and a Rotarod test score (G1H-G93A transgenic mice [2]; 130th day after birth) of 3.0 ± 0.0. The Rotarod test score (G1H-G93A transgenic mice [2]; 135th day after birth) was 3.0 ± 0.0, the Rotarod test score (G1H-G93A transgenic mice [2]; 140th day after birth) was 3.0 ± 0.0 and the Rotarod test score (G1H-G93A transgenic mice [2]; [3]) was 3.0±0.0.
